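Cultured in 96-well plates, cells were exposed to test compound for 48 hours across five concentrations. At the GI50, growth is halved. The concentration for full growth arrest is given as TGI.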
How the values were obtained:
Assay in all cases: inhibition of tumour cell growth, NCI panel, 48 h
786-0 renal = test system: 786-0 renal
A498 renal = test system: A498 renal
A549 NSCLC = test system: A549 NSCLC
ACHN renal = test system: ACHN renal
BT-549 breast = test system: BT-549 breast
CAKI-1 renal = test system: CAKI-1 renal
CCRF-CEM leukemia = test system: CCRF-CEM leukemia
COLO 205 colon = test system: COLO 205 colon
DU-145 prostate = test system: DU-145 prostate
EKVX NSCLC = test system: EKVX NSCLC
HCC-2998 colon = test system: HCC-2998 colon
HCT-116 colon = test system: HCT-116 colon
HCT-15 colon = test system: HCT-15 colon
HL-60(TB) leukemia = test system: HL-60(TB) leukemia
HOP-62 NSCLC = test system: HOP-62 NSCLC
HOP-92 NSCLC = test system: HOP-92 NSCLC
HS 578T breast = test system: HS 578T breast
HT29 colon = test system: HT29 colon
IGROV1 ovarian = test system: IGROV1 ovarian
K-562 leukemia = test system: K-562 leukemia
KM12 colon = test system: KM12 colon
LOX IMVI melanoma = test system: LOX IMVI melanoma
M14 melanoma = test system: M14 melanoma
MALME-3M melanoma = test system: MALME-3M melanoma
MCF7 breast = test system: MCF7 breast
MDA-MB-231 breast = test system: MDA-MB-231 breast
MDA-MB-435 = test system: MDA-MB-435
MDA-MB-468 breast = test system: MDA-MB-468 breast
MOLT-4 leukemia = test system: MOLT-4 leukemia
NCI-H226 lung = test system: NCI-H226 lung
NCI-H23 lung = test system: NCI-H23 lung
NCI-H460 lung = test system: NCI-H460 lung
NCI-H522 lung = test system: NCI-H522 lung
NCI/ADR-RES ovarian = test system: NCI/ADR-RES ovarian
OVCAR-3 ovarian = test system: OVCAR-3 ovarian
OVCAR-4 ovarian = test system: OVCAR-4 ovarian
OVCAR-5 ovarian = test system: OVCAR-5 ovarian
OVCAR-8 ovarian = test system: OVCAR-8 ovarian
PC-3 prostate = test system: PC-3 prostate
RPMI-8226 leukemia = test system: RPMI-8226 leukemia
RXF 393 renal = test system: RXF 393 renal
SF-268 CNS = test system: SF-268 CNS
SF-295 CNS = test system: SF-295 CNS
SF-539 CNS = test system: SF-539 CNS
SK-MEL-2 melanoma = test system: SK-MEL-2 melanoma
SK-MEL-28 melanoma = test system: SK-MEL-28 melanoma
SK-MEL-5 melanoma = test system: SK-MEL-5 melanoma
SK-OV-3 ovarian = test system: SK-OV-3 ovarian
SN12C renal = test system: SN12C renal
SNB-19 CNS = test system: SNB-19 CNS
SNB-75 CNS = test system: SNB-75 CNS
SR leukemia = test system: SR leukemia
SW-620 colon = test system: SW-620 colon
T-47D breast = test system: T-47D breast
TK-10 renal = test system: TK-10 renal
U251 CNS = test system: U251 CNS
UACC-257 melanoma = test system: UACC-257 melanoma
UACC-62 melanoma = test system: UACC-62 melanoma
UO-31 renal = test system: UO-31 renal

Compound: CC1=C(c2cc(-c3ccc(Cl)cc3)c(C#N)c(N)n2)C(c2ccccc2)NC(=S)N1 (configuration not stated)
- GI50 (786-0 renal): 16.3 µM
- TGI (786-0 renal): 35.4 µM
- GI50 (A498 renal): > 44.5 µM
- TGI (A498 renal): > 62.8 µM
- GI50 (A549 NSCLC): 48.8 µM
- TGI (A549 NSCLC): > 88 µM
- GI50 (ACHN renal): 15.5 µM
- TGI (ACHN renal): 30.9 µM
- GI50 (BT-549 breast): 14.1 µM
- TGI (BT-549 breast): 29.5 µM
- GI50 (CAKI-1 renal): 16.5 µM
- TGI (CAKI-1 renal): 43.9 µM
- GI50 (CCRF-CEM leukemia): 0.303 µM
- TGI (CCRF-CEM leukemia): 16.9 µM
- GI50 (COLO 205 colon): 17 µM
- TGI (COLO 205 colon): 33.5 µM
- GI50 (DU-145 prostate): 13.1 µM
- TGI (DU-145 prostate): 29.3 µM
- GI50 (EKVX NSCLC): 16.4 µM
- TGI (EKVX NSCLC): 42.6 µM
- GI50 (HCC-2998 colon): 13.4 µM
- TGI (HCC-2998 colon): 26.4 µM
- GI50 (HCT-116 colon): 0.147 µM
- TGI (HCT-116 colon): 17.6 µM
- GI50 (HCT-15 colon): 0.171 µM
- TGI (HCT-15 colon): 18.2 µM
- GI50 (HL-60(TB) leukemia): 0.168 µM
- GI50 (HOP-62 NSCLC): 16 µM
- TGI (HOP-62 NSCLC): 37 µM
- GI50 (HOP-92 NSCLC): 19.1 µM
- TGI (HOP-92 NSCLC): 62.7 µM
- GI50 (HS 578T breast): 19.1 µM
- TGI (HS 578T breast): > 96.2 µM
- GI50 (HT29 colon): 12.2 µM
- TGI (HT29 colon): 27.6 µM
- GI50 (IGROV1 ovarian): 17.2 µM
- TGI (IGROV1 ovarian): 36.4 µM
- GI50 (K-562 leukemia): 0.277 µM
- TGI (K-562 leukemia): > 100 µM
- GI50 (KM12 colon): 16.9 µM
- TGI (KM12 colon): 35.5 µM
- GI50 (LOX IMVI melanoma): 1.34 µM
- TGI (LOX IMVI melanoma): 14.4 µM
- GI50 (M14 melanoma): 3.33 µM
- TGI (M14 melanoma): 25.4 µM
- GI50 (MALME-3M melanoma): 14 µM
- TGI (MALME-3M melanoma): 32.1 µM
- GI50 (MCF7 breast): 0.177 µM
- TGI (MCF7 breast): 28.5 µM
- GI50 (MDA-MB-231 breast): 13.6 µM
- TGI (MDA-MB-231 breast): 29.6 µM
- GI50 (MDA-MB-435): 7.44 µM
- TGI (MDA-MB-435): 30.3 µM
- GI50 (MDA-MB-468 breast): 8.45 µM
- TGI (MDA-MB-468 breast): 22.7 µM
- GI50 (MOLT-4 leukemia): 1.37 µM
- TGI (MOLT-4 leukemia): > 66.2 µM
- GI50 (NCI-H226 lung): 15.8 µM
- TGI (NCI-H226 lung): 44.6 µM
- GI50 (NCI-H23 lung): 13.6 µM
- TGI (NCI-H23 lung): 29.6 µM
- GI50 (NCI-H460 lung): 20.3 µM
- TGI (NCI-H460 lung): 53.8 µM
- GI50 (NCI-H522 lung): 14.7 µM
- TGI (NCI-H522 lung): 29.5 µM
- GI50 (NCI/ADR-RES ovarian): 0.671 µM
- TGI (NCI/ADR-RES ovarian): 26.2 µM
- GI50 (OVCAR-3 ovarian): 13.8 µM
- TGI (OVCAR-3 ovarian): 47.4 µM
- GI50 (OVCAR-4 ovarian): 28 µM
- TGI (OVCAR-4 ovarian): > 100 µM
- GI50 (OVCAR-5 ovarian): 17.8 µM
- TGI (OVCAR-5 ovarian): 35.5 µM
- GI50 (OVCAR-8 ovarian): 20 µM
- TGI (OVCAR-8 ovarian): > 86.4 µM
- GI50 (PC-3 prostate): 11 µM
- TGI (PC-3 prostate): 53.1 µM
- GI50 (RPMI-8226 leukemia): 0.692 µM
- TGI (RPMI-8226 leukemia): 34.1 µM
- GI50 (RXF 393 renal): 11.6 µM
- TGI (RXF 393 renal): 24.3 µM
- GI50 (SF-268 CNS): 17.6 µM
- TGI (SF-268 CNS): 67.2 µM
- GI50 (SF-295 CNS): 10.8 µM
- TGI (SF-295 CNS): 24.4 µM
- GI50 (SF-539 CNS): 10.1 µM
- TGI (SF-539 CNS): 23 µM
- GI50 (SK-MEL-2 melanoma): 17.5 µM
- TGI (SK-MEL-2 melanoma): 34.2 µM
- GI50 (SK-MEL-28 melanoma): 14.9 µM
- TGI (SK-MEL-28 melanoma): 30 µM
- GI50 (SK-MEL-5 melanoma): 6.62 µM
- TGI (SK-MEL-5 melanoma): 20.1 µM
- GI50 (SK-OV-3 ovarian): 23.7 µM
- TGI (SK-OV-3 ovarian): 67.9 µM
- GI50 (SN12C renal): 5.86 µM
- TGI (SN12C renal): 21.6 µM
- GI50 (SNB-19 CNS): 16.7 µM
- TGI (SNB-19 CNS): 53.8 µM
- GI50 (SNB-75 CNS): 7.01 µM
- TGI (SNB-75 CNS): 47 µM
- GI50 (SR leukemia): 0.0842 µM
- TGI (SR leukemia): > 48.7 µM
- GI50 (SW-620 colon): 11 µM
- TGI (SW-620 colon): 32.5 µM
- GI50 (T-47D breast): 11.4 µM
- TGI (T-47D breast): 47.5 µM
- GI50 (TK-10 renal): 23.1 µM
- TGI (TK-10 renal): 61 µM
- GI50 (U251 CNS): 12.5 µM
- TGI (U251 CNS): 28.1 µM
- GI50 (UACC-257 melanoma): 16.1 µM
- TGI (UACC-257 melanoma): 38.8 µM
- GI50 (UACC-62 melanoma): 13.1 µM
- TGI (UACC-62 melanoma): 26.9 µM
- GI50 (UO-31 renal): 13.3 µM
- TGI (UO-31 renal): 26.3 µM

From PubChem BioAssay (NCI)
